Results published in patent US20210000912A1, “Compositions And Methods For Prophylaxis Or Treatment Of Pain” (Interk Peptide Therapeutics Limited, priority 2017, published 2021).
pIC50: −log10 of the molar value.

Target: T1, PKG1β (h) (Homo sapiens, UniProt Q13976)
T1 construct: purchased Eurofins Pharma Discovery Services UK Ltd (contract assay service)
T1 sequence (Q13976 1-686 isoform Q13976-2): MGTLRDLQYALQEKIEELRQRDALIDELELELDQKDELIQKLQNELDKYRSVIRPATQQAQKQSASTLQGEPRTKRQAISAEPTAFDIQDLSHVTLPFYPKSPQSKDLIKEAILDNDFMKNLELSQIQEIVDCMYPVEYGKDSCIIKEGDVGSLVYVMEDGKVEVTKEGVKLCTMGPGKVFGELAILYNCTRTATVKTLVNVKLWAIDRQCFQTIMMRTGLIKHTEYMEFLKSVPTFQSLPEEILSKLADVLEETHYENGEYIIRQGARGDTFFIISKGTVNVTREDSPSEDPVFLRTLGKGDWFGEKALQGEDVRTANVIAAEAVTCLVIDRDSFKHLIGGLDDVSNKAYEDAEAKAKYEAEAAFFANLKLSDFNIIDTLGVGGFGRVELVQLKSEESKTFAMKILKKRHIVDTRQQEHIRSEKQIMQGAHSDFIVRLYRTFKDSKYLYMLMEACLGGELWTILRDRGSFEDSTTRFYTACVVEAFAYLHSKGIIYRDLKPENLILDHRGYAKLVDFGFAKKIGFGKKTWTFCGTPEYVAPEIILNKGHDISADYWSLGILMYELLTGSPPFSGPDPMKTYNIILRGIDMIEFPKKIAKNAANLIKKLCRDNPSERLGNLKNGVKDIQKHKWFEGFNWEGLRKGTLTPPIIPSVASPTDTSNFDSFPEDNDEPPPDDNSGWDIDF
Assay: PKG1β kinase activity assay, cell free
Format: biochemical
Protocol: The capacity of test peptides to inhibit the activity of the kinases PKG1α, PKG1β, and Src family kinases in a cell free assay was assessed. The test peptides were amidated at their C-terminal end (indicated by “—NH2”) unless otherwise noted. Kinase activity assays were conducted by Eurofins Pharma Discovery Services UK Ltd (Dundee Technology Park, Dundee, United Kingdom) and Reaction Biology Corp. (Malvern, Pa., USA).
All test peptides are prepared to 50× final assay concentration in 100% DMSO. This working stock of the test compound is added to assay wells as the first component in the reaction, followed by the remaining components of the respective assay protocols described below. There is no pre-incubation step between the test peptide and the kinase prior to initiation of the reaction. The kinases are diluted in buffer (20 mM MOPS, 1 mM EDTA, 0.01% Brij-35, 5% Glycerol, 0.1% β-mercaptoethanol, 1 mg/mL BSA) prior to addition to the reaction mix.
Positive control wells contain all components of the reaction, except the test peptide of interest. However, DMSO (at a final concentration of 2%) is included in positive control wells to control for solvent effects. Negative control wells contain all components of the reaction, with a reference inhibitor (staurosporine) replacing the test peptide. This abolishes kinase activity and establishes a base-line (0% kinase activity). Kinase assay protocols (Eurofins Pharma Discovery Services UK Ltd, Dundee Technology Park, Dundee, United Kingdom) are described below. Of the Src family kinases, only the assay protocol for c-Src is shown.
PKG1b(h) is incubated with 8 mM MOPS pH 7.0, 0.2 mM EDTA, 10 μM cGMP, 200 μM RRRLSFAEPG, 10 mM magnesium acetate and [γ-^33P]-ATP (specific activity approx. 500 cpm/pmol, concentration as required). The reaction is initiated by the addition of the MgATP mix. After incubation for 40 minutes at room temperature, the reaction is stopped by the addition of 3% phosphoric acid solution. A 10 μL aliquot of the reaction is then spotted onto a P30 filtermat and washed three times for 5 mins in 75 mM phosphoric acid and once in methanol prior to drying and scintillation counting.

`N=C(N)NCCC[C@H](NC(=O)[C@H](CCCNC(=N)N)NC(=O)[C@H](CCCNC(=N)N)NC(=O)[C@H](CCCNC(=N)N)NC(=O)[C@H](CCCNC(=N)N)NC(=O)[C@H](CCCNC(=N)N)NC(=O)[C@H](CCCNC(=N)N)NC(=O)[C@H](CCCNC(=N)N)NC(=O)[C@H](CCCNC(=N)N)NC(=O)[C@H](CCCNC(=N)N)NC(=O)[C@H](CCCNC(=N)N)NC(=O)[C@H](CCCNC(=N)N)NC(=O)[C@H](CCCNC(=N)N)NC(=O)[C@@H](N)CCCNC(=N)N)C(N)=O` [IK01400, RRRRRRRRRRRRRR-NH2] was tested, and the pIC50 was 8.28 and the “PKG1β IC50” value (cell free, 10 μM cGMP, 40 minutes at room temperature) was “single digit nanomolar range”.
